Measurements as given in patent US20140315933A1, “CHEMICAL COMPOUNDS” (Pfizer Limited, priority 2013, published 2014).
Counter-ions that a name gives are not always drawn.

Each compound was assayed against T1, URAT-1 transporter (Homo sapiens, UniProt Q96S37) (assay: URAT-1 inhibitor activity: [14C]-uric acid uptake into CHO-URAT1(L)GFP#8 (CHO#8) cells, scintillation proximity).
T1 construct: expressed in transfected cells
Format: cell-based
In short: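 Scintillation proximity read-out of 30 nM (final) [14C]-uric acid uptake over three hours at room temperature in chloride-free HEPES buffer pH 7.4. Compounds, 0–10 μM final with 0.25% DMSO, were added 15 minutes before substrate; cells were a clonal CHO line with human URAT1(L)-eGFP, preincubated 1 hour in chloride buffer.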

T1 sequence (Q96S37 with tags, fused parts or gaps): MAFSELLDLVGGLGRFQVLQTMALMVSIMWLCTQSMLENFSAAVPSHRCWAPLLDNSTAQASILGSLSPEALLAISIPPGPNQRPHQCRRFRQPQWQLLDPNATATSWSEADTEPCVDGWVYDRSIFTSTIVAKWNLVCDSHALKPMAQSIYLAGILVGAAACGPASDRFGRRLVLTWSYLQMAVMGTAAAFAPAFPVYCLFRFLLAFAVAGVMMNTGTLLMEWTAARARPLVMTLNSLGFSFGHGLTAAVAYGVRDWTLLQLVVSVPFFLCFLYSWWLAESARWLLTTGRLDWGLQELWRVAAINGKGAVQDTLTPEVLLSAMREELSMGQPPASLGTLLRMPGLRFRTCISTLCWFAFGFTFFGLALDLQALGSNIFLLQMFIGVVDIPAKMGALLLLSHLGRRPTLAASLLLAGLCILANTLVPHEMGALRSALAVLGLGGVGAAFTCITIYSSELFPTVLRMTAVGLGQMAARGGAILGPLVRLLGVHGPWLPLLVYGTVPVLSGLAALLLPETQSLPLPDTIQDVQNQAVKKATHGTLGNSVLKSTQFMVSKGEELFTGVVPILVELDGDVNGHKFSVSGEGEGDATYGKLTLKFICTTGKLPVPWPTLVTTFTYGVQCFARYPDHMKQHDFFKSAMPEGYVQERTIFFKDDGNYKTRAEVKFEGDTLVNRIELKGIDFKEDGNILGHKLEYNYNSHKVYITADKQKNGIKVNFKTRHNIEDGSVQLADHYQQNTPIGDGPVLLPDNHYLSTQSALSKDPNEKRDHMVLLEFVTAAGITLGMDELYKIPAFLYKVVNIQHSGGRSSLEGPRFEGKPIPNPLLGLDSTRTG

| SMILES | IC50 [nM] |
| --- | --- |
| Cn1cc(NS(=O)(=O)c2ccc(Oc3ccc(C#N)c(Cl)c3)c(C#N)c2)cn1 [Example 58, 4-(3-chloro-4-cyanophenoxy)-3-cyano-N-(1-methyl-1H-pyrazol-4-yl)benzenesulfonamide] | > 10000 |
| N#Cc1cc(S(=O)(=O)Nc2ncc(F)s2)ccc1Oc1c(F)cccc1Cl [Example 125, 4-(2-chloro-6-fluorophenoxy)-3-cyano-N-(5-fluoro-1,3-thiazol-2-yl)benzenesulfonamide] | 551 |
| N#Cc1cc(Oc2ccc(S(=O)(=O)Nc3ncc(Cl)s3)cc2C#N)ccc1F [compound 193] | 834 |
| CCc1cc(F)ccc1Oc1ccc(S(=O)(=O)Nc2ncns2)c(C#N)c1 [Example 56, 2-cyano-4-(2-ethyl-4-fluorophenoxy)-N-(1,2,4-thiadiazol-5-yl)benzenesulfonamide] | 2120 |
| COc1c(F)ccc(Oc2cc(F)c(S(=O)(=O)Nc3nncs3)cc2Cl)c1Cl [compound 329] | 606 |
| COc1cc(Cl)cc(Cl)c1Oc1ccc(S(=O)(=O)Nc2ncns2)cc1C#N [Example 26, 3-cyano-4-(2,4-dichloro-6-methoxyphenoxy)-N-(1,2,4-thiadiazol-5-yl)benzenesulfonamide diethylamine salt] | 875 |
| COc1ccc(Cl)c(Oc2cc(F)c(S(=O)(=O)Nc3nncs3)cc2Cl)c1 [compound 326] | 369 |
| N#Cc1cc(S(=O)(=O)Nc2ncns2)ccc1Oc1ccc(C(F)(F)F)cc1C(F)(F)F [Example 33, 4-[2,4-bis(trifluoromethyl)phenoxy]-3-cyano-N-(1,2,4-thiadiazol-5-yl)benzenesulfonamide] | 6190 |
| N#Cc1cc(S(=O)(=O)Nc2nccs2)ccc1Oc1ccc(OCC(F)(F)F)nc1 [Example 190, 3-cyano-N-(1,3-thiazol-2-yl)-4-{[6-(2,2,2-trifluoroethoxy)pyridin-3-yl]oxy}benzenesulfonamide] | > 10000 |
| N#Cc1ccc(Oc2cc(F)c(S(=O)(=O)Nc3ncns3)cc2Cl)c(OC(F)F)c1 [Example 155, 5-chloro-4-[4-cyano-2-(difluoromethoxy)phenoxy]-2-fluoro-N-(1,2,4-thiadiazol-5-yl)benzenesulfonamide diethylamine salt] | > 7250 |
